Assay [1] deals with T1, Sterol O-acyltransferase 1 (Rattus norvegicus) (UniProt O70536).
T1 sequence (whole entry): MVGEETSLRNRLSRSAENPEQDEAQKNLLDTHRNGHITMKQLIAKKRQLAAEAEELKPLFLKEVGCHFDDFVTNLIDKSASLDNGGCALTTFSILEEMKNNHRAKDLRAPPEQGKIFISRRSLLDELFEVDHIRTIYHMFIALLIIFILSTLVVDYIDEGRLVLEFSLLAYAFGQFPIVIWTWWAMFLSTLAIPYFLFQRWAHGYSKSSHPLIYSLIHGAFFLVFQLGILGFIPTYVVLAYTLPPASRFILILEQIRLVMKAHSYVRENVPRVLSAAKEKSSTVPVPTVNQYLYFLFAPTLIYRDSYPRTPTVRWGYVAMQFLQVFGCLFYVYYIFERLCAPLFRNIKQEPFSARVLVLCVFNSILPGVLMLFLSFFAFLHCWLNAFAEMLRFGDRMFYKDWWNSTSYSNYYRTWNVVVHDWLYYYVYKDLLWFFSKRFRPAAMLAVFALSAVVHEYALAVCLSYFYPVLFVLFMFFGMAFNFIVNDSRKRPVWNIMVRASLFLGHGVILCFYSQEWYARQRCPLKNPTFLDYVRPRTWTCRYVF
As to the kind of experiment: In vitro inhibitory activity against acyl coenzyme A:cholesterol acyltransferase. Particulars: concentration not given here. Set-up: concentration or dose not given beside the values.

In assay [2] the test system is Rattus norvegicus. As to the kind of experiment: In vivo Triglyceride lowering activity at dose as 0.03 % of the diet. In kind it is functional.
The subject of assay [3] is Rattus norvegicus. As to the kind of experiment: In vivo sterol lowering activity, dosed as 0.03 % of the diet. The assay is classed as functional.
Assay [4] deals with Rattus norvegicus. Description: In vivo sterol lowering activity at dose of 0.10 % of the diet. In kind it is functional.
The subject of assay [5] is Rattus norvegicus. As to the kind of experiment: In vivo Triglyceride lowering activity at dose as 0.01 % of the diet. The assay is classed as functional.
In assay [6] the test system is Rattus norvegicus. Description: In vivo Triglyceride lowering activity at a dose of 0.10 % of the diet. In kind it is functional.
The test system of assay [7] is Rattus norvegicus. Description: In vivo Sterol lowering activity at dose as 0.01% of the diet. The assay is classed as functional.

For orientation: inhibition means the drop in the measured response relative to a control, in per cent. Turning to `O=C(O)c1ccc(NCCCCCCCCCCCC2CCCCC2)cc1`, in assay [1], the inhibition is under 56%. Moreover, the triglyceride lowering activity in the assay with Rattus norvegicus [2] is recorded as under 51%. Besides, the “serum sterol level, percent of control” value in the assay on Rattus norvegicus [3] came out at 91%; in the assay on Rattus norvegicus [7], 95%. Besides, the “serum sterol level, % of control” value in the assay with Rattus norvegicus [4] worked out at 83%. The “serum triglyceride level (% of control)” value in the assay with Rattus norvegicus [5] is reported as 73%; in the assay on Rattus norvegicus [6], under 48%.

Take `CCOC(=O)c1ccc(NC(=O)CCCCCCCCCCCCCCCBr)cc1`: the inhibition in assay [1] was under 32%. Besides, the triglyceride lowering activity in the assay with Rattus norvegicus [2] was found to be 94%. Also, the “serum sterol level, percent of control” value in the assay with Rattus norvegicus [3] came to 93%; in the assay on Rattus norvegicus [7], 96%. Besides, the “serum sterol level, % of control” value with Rattus norvegicus [4] was under 86%. The figures for the “serum triglyceride level (% of control)” value with Rattus norvegicus [5] and in the assay with Rattus norvegicus [6] were 84% and 79%, respectively.

In assay [1], `CCOC(=O)c1ccc(NCCCCCCCCCCCCCC(C)C)cc1` showed an inhibition of 9%. For the same compound, in the assay with Rattus norvegicus [2], the triglyceride lowering activity is 84%. In addition, the “serum sterol level, percent of control” value is given as under 89% in the assay with Rattus norvegicus [3] and 92% in the assay with Rattus norvegicus [7]. In addition, the “serum sterol level, % of control” value in the assay on Rattus norvegicus [4] is reported as under 80%. Also, the “serum triglyceride level (% of control)” value with Rattus norvegicus [5] is recorded as 84%; in the assay with Rattus norvegicus [6], under 61%.

Regarding `CCOC(=O)c1ccc(NCCC[Si](C)(C)C)cc1`, in assay [1], the inhibition was under 59%. For the same compound, the triglyceride lowering activity in the assay with Rattus norvegicus [2] is under 63%. Besides, the “serum sterol level, percent of control” value stood at 86% with Rattus norvegicus [3] and 99% in the assay with Rattus norvegicus [7]. Besides, the “serum sterol level, % of control” value with Rattus norvegicus [4] is listed as under 77%. Further, the “serum triglyceride level (% of control)” value with Rattus norvegicus [5] was under 60%; with Rattus norvegicus [6], under 54%.

In turn, `CCOC(=O)c1ccc(NC(=O)CCCCCCCCCCCCC[Si](C)(C)C)cc1` yielded an inhibition in assay [1] of under 21%. For the same compound, in the assay with Rattus norvegicus [2], the triglyceride lowering activity was 91%. Also, the “serum sterol level, percent of control” value in the assay on Rattus norvegicus [3] is listed as 98%; in the assay with Rattus norvegicus [7], 99%. In addition, the “serum sterol level, % of control” value in the assay on Rattus norvegicus [4] is 101%. For the same compound, the “serum triglyceride level (% of control)” value in the assay with Rattus norvegicus [5] was determined as 99%; in the assay with Rattus norvegicus [6], 97%.

For `CCCCCCCCCCC(N)CCCCCNc1ccc(C(=O)OCC)cc1` (stereo unspecified), the inhibition in assay [1] stood at 0%. Moreover, in the assay with Rattus norvegicus [2], the triglyceride lowering activity stood at 70%. Moreover, the “serum sterol level, percent of control” value in the assay with Rattus norvegicus [3] was 99%; in the assay on Rattus norvegicus [7], 97%. Moreover, the “serum sterol level, % of control” value in the assay with Rattus norvegicus [4] was determined as 84%. Besides, the entries for the “serum triglyceride level (% of control)” value with Rattus norvegicus [5] and in the assay with Rattus norvegicus [6] were 68% and under 45%, respectively.

Consider `CCOC(=O)c1ccc(NCCCCCCCCCCCCCCCC(=O)O)cc1`, for which, in assay [1], the inhibition worked out at 4%. For the same compound, the triglyceride lowering activity with Rattus norvegicus [2] is 133%. Also, the figures for the “serum sterol level, percent of control” value with Rattus norvegicus [3] and with Rattus norvegicus [7] were 106% and 100%, respectively. Besides, the “serum sterol level, % of control” value with Rattus norvegicus [4] is recorded as 106%. Also, the “serum triglyceride level (% of control)” value in the assay with Rattus norvegicus [5] is on record as 99%; with Rattus norvegicus [6] it was 147%.

With `CCCCCCCCCCCCCCCCN(CC(=O)O)c1ccc(C(=O)O)cc1`, in assay [1], the inhibition worked out at 15%. In addition, the triglyceride lowering activity with Rattus norvegicus [2] is 100%. Further, the “serum sterol level, percent of control” value with Rattus norvegicus [3] is given as 109%; in the assay on Rattus norvegicus [7], 105%. Moreover, in the assay on Rattus norvegicus [4], the “serum sterol level, % of control” value came to 93%. The entries for the “serum triglyceride level (% of control)” value in the assay on Rattus norvegicus [5] and in the assay on Rattus norvegicus [6] were 105% and 99%, respectively.

`CCCCCCCCCCCCCCCCN(CS(=O)(=O)[O-])c1ccc(C(=O)[O-])cc1.[Na+].[Na+]`: in the assay on Rattus norvegicus [2], the triglyceride lowering activity was found to be 95%. The figures for the “serum sterol level, percent of control” value with Rattus norvegicus [3] and with Rattus norvegicus [7] were 91% and 89%, respectively. Besides, the “serum sterol level, % of control” value in the assay on Rattus norvegicus [4] is under 75%. Moreover, the “serum triglyceride level (% of control)” value worked out at 77% in the assay on Rattus norvegicus [5] and 89% in the assay on Rattus norvegicus [6].

For the compound `O=C(O)CCCCCCCCCCCCCCCNc1ccc(C(=O)O)cc1`, the triglyceride lowering activity in the assay with Rattus norvegicus [2] is 90%. Besides, the “serum sterol level, percent of control” value with Rattus norvegicus [3] is given as 92%; in the assay on Rattus norvegicus [7], 101%. The “serum sterol level, % of control” value in the assay with Rattus norvegicus [4] stood at 92%. Moreover, the “serum triglyceride level (% of control)” value worked out at 124% in the assay on Rattus norvegicus [5] and 96% in the assay with Rattus norvegicus [6].

With `C[Si](C)(C)CCCCCCCCCCCNc1ccc(C(=O)[O-])cc1.[Na+]`, the triglyceride lowering activity in the assay with Rattus norvegicus [2] turned out to be 88%. The figures for the “serum sterol level, percent of control” value in the assay with Rattus norvegicus [3] and with Rattus norvegicus [7] were under 73% and under 81%, respectively. Further, the “serum sterol level, % of control” value with Rattus norvegicus [4] is listed as under 48%. Also, the “serum triglyceride level (% of control)” value is reported as 122% in the assay on Rattus norvegicus [5] and under 46% in the assay on Rattus norvegicus [6].

For the compound `CC(C)(C)CCCCCCCCCCCCCCNc1ccc(C(=O)O)cc1`, the triglyceride lowering activity in the assay on Rattus norvegicus [2] is reported as under 42%. The entries for the “serum sterol level, percent of control” value with Rattus norvegicus [3] and in the assay on Rattus norvegicus [7] were under 53% and under 69%, respectively. Also, the “serum sterol level, % of control” value in the assay on Rattus norvegicus [4] is under 48%. The entries for the “serum triglyceride level (% of control)” value in the assay with Rattus norvegicus [5] and in the assay with Rattus norvegicus [6] were under 59% and under 20%, respectively.

For `CCCCCCCCCCCCCCCCN(CS(=O)(=O)[O-])c1ccc(C(=O)O)cc1.[Na+]`, in the assay on Rattus norvegicus [2], the triglyceride lowering activity is given as under 57%. Besides, the “serum sterol level, percent of control” value in the assay on Rattus norvegicus [3] is on record as under 87%; with Rattus norvegicus [7], 91%. The “serum sterol level, % of control” value in the assay on Rattus norvegicus [4] is on record as under 72%. The “serum triglyceride level (% of control)” value in the assay on Rattus norvegicus [5] is on record as 79%; in the assay with Rattus norvegicus [6], under 49%.

Consider `C[Si](C)(C)CCCCCCCCCCCCCCNc1ccc(C(=O)[O-])cc1.[Na+]`, for which, in the assay on Rattus norvegicus [2], the triglyceride lowering activity is on record as under 43%. Besides, the “serum sterol level, percent of control” value is under 56% in the assay on Rattus norvegicus [3] and 75% with Rattus norvegicus [7]. The “serum sterol level, % of control” value in the assay on Rattus norvegicus [4] was under 39%. The entries for the “serum triglyceride level (% of control)” value with Rattus norvegicus [5] and in the assay on Rattus norvegicus [6] were under 55% and under 22%, respectively.

On to `C[Si](C)(C)CCCNc1ccc(C(=O)O)cc1`, for which, in the assay on Rattus norvegicus [2], the triglyceride lowering activity is under 58%. The “serum sterol level, percent of control” value in the assay on Rattus norvegicus [3] was 90%; in the assay on Rattus norvegicus [7], 100%. Moreover, in the assay with Rattus norvegicus [4], the “serum sterol level, % of control” value was under 82%. Also, the “serum triglyceride level (% of control)” value was under 69% with Rattus norvegicus [5] and under 47% with Rattus norvegicus [6].

On to `CCCCCCCCCC/C(CCCCCNc1ccc(C(=O)O)cc1)=N/O`, for which the triglyceride lowering activity with Rattus norvegicus [2] is listed as under 30%. The “serum sterol level, percent of control” value in the assay with Rattus norvegicus [3] was under 84%; in the assay on Rattus norvegicus [7], 86%. For the same compound, in the assay with Rattus norvegicus [4], the “serum sterol level, % of control” value is under 75%. Further, the “serum triglyceride level (% of control)” value in the assay on Rattus norvegicus [5] is on record as under 52%; in the assay with Rattus norvegicus [6], under 31%.

For the compound `O=C([O-])c1ccc(NCCCCCCCCCCCCCCCC(F)(F)F)cc1.[Na+]`, the triglyceride lowering activity in the assay on Rattus norvegicus [2] is listed as under 39%. For the same compound, the entries for the “serum sterol level, percent of control” value in the assay on Rattus norvegicus [3] and in the assay with Rattus norvegicus [7] were under 62% and under 75%, respectively. Moreover, the “serum sterol level, % of control” value in the assay with Rattus norvegicus [4] is given as under 34%. In addition, the “serum triglyceride level (% of control)” value in the assay on Rattus norvegicus [5] is reported as under 63%; in the assay on Rattus norvegicus [6], under 21%.

On to `CC(C)(C)CCCCCCCCCCCCCCNc1ccc(C(=O)[O-])cc1.[Na+]`, for which, in the assay on Rattus norvegicus [2], the triglyceride lowering activity is under 55%. The “serum sterol level, percent of control” value in the assay with Rattus norvegicus [3] is recorded as under 53%; in the assay with Rattus norvegicus [7], under 72%. Further, the “serum sterol level, % of control” value with Rattus norvegicus [4] is listed as under 44%. Besides, the entries for the “serum triglyceride level (% of control)” value in the assay on Rattus norvegicus [5] and in the assay on Rattus norvegicus [6] were under 66% and under 30%, respectively.

(Values after ChEMBL document CHEMBL1122462, “Potential antiatherosclerotic agents. 4. [(Functionalized-alkyl)amino]benzoic acid analogues of cetaben” (1983).)
